Source: patent publication US20250188123A1, “PROTEASE INHIBITORS” (Regents of the University of Minnesota, priority 2022, published 2025)

Columns and labels:
Assay type in all cases: biochemical
[1] = target: T1, Human recombinant Casp7 (Homo sapiens, UniProt P55210); test: In vitro caspase panel assay, Casp7; conditions: Casp2 over Casp7, caspase panel
T1 construct: purchased BioVision (Milpitas/CA, USA)
T1 sequence (P55210 1-303): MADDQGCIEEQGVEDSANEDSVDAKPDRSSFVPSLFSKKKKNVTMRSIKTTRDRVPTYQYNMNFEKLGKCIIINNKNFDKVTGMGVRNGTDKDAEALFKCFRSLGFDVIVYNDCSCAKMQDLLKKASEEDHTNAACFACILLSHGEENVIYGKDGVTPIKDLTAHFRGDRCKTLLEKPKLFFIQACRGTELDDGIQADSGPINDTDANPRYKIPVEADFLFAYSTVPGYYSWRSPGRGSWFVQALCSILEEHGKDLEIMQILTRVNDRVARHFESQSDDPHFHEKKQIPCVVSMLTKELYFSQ
From the text: (§1) Human recombinant Casp1, 6, 7, and 9 were purchased from BioVision (Milpitas/CA, USA). AFC fluorogenic substrates and control peptides (AcYVAD-CHO, AcVDVAD-CHO, AcDEVD-CHO, AcVEID-CHO, and AcLEHD-CHO) were purchased from Bachem (Torrance/CA, USA). The pET23b vector encoding human caspase-3 was a gift of Dr. Michelle Arkin at University of California, San Francisco. Expression and purification of Casp3 was guided by previously described protocols (Denault J-B, Salvesen G S., Current Protocols in Protein Science, 2002, 30(1), 21.13. 1-21.13. 15). Briefly, the plasmid was transformed into E. coli Rosetta 2 pLyss DE3 cells that were cultured at 1 L scale in shake flasks. […] The typical yield for the expression, isolation, and purification was approximately 3 mg/L. The DNA encoding human caspase-2 (hCASP2, amino acids 170-452, free of the N-terminal caspase activation and recruitment domain) open reading frame (ORF) was amplified via polymerase chain reaction (PCR) from full-length hCASP2 cDNA (Origene, Rockville, MD; Cat #SC321316) using following primers: forward, 5′-[…]-3′; reverse, 5′-[…]-3′. […] Proteins were stored in 1× phosphate-buffered saline (pH 7.4) at 10 mg/mL (concentration determined using a BCA assay (Thermo Fisher Scientific)), −80° C. until further use. […]

[2] = target: T2, Human recombinant Casp1 (Homo sapiens, UniProt P29466); test: In vitro caspase panel assay, Casp1; conditions: Casp2 over Casp1, caspase panel
T2 construct: purchased BioVision (Milpitas/CA, USA)
T2 sequence (P29466 120-404): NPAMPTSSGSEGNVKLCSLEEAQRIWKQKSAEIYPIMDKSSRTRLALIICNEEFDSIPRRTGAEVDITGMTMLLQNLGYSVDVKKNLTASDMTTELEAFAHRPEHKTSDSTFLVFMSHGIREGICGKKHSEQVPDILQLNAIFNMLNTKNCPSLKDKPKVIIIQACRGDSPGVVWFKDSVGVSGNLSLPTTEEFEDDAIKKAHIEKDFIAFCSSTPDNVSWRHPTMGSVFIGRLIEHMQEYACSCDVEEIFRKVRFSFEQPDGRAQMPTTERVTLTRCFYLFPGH
From the text: as §1

[3] = target: thrombin (Homo sapiens, UniProt P00734); test: Activity at thrombin proteolytic enzyme
[4] = target: T3, Human recombinant Casp6 (Homo sapiens, UniProt P55212); test: In vitro caspase panel assay, Casp6; conditions: Casp2 over Casp6, caspase panel
T3 construct: purchased BioVision (Milpitas/CA, USA)
T3 sequence (P55212 24-293): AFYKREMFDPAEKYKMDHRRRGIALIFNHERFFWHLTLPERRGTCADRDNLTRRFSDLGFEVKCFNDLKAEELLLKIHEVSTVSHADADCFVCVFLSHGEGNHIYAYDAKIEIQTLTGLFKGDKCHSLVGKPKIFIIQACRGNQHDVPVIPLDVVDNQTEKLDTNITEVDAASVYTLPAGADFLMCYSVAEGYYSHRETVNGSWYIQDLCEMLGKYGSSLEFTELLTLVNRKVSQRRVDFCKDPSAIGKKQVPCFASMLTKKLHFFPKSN
From the text: as §1

With Cc1ccc2c(c1)CCN(C(=O)[C@@H](NC(=O)[C@H](CCCC(=O)O)NC(=O)C1Cc3ccccc3N1)C(C)C)[C@@H]2C(=O)N[C@H](C#N)CC(=O)O (stereo partly drawn) [Compound 1, (8)-6-(((S)-1-((8)-1-(((S)-2-carboxy-1-cyanoethyl)carbamoyl)-6-methyl-3,4-dihydroisoquinolin-2(1H)-yl)-3-methyl-1-oxobutan-2-yl)amino)-5-((S)-indoline-2-carboxamido)-6-oxohexanoic acid] the “selective versus Casp7” value [1] was greater than 2000 fold, the “selective versus Casp1” value [2] was greater than 2000 fold and the activity at thrombin [3] was “weak activity”. For the same compound, the “selective versus Casp6” value [4] was greater than 2000 fold.
